Consider twelve molecules from patent US5767116A, “Bicyclic aromatic compounds as therapeutic agents” (Knoll Atkiengesellschaft, priority 1993, dated 1998).

One assay addresses T1, 5-HT1A receptors (Rattus norvegicus, UniProt P19327).
T1 sequence (P19327 1-422): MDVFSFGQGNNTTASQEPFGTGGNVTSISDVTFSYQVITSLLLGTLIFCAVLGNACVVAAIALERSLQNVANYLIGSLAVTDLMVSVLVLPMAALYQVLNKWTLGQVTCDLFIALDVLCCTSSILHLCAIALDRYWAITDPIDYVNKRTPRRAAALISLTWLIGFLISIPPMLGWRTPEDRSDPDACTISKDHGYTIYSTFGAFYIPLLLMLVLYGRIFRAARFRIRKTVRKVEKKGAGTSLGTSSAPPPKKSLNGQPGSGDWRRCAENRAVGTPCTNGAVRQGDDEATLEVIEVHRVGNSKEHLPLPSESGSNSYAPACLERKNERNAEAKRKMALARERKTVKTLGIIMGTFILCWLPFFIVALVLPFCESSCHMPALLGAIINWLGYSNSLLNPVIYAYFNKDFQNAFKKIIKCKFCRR
Put plainly: biochemical. It counts as binding, rat (male Charles River CD). The conditions noted are these: for Ki: 25° C., 30 minutes. Here is the method: The pellet was rehomogenised in the same buffer, incubated at 37° C. for 10 minutes and centrifuged at 30,000 g at 4° C. for 10 minutes. […] Aliquots (400 μl; equivalent to 2.5 mg wet weight of tissue/tube) of this suspension were added to tubes containing the ligand (50 μl; 2 nM) and distilled water (50 μl; total binding) or 5-HT (50 μl; 10 µM; non-specific binding) or test compound (50 μl; at a single concentration of 10^-6 M or at 10 concentrations ranging from 10^-11 -10^-3 M). The ligand was [^3 H]8-hydroxy-2-(dipropylamino)tetralin([^3 H]8-OH-DPAT) and the mixture was incubated at 25° C. for 30 minutes before the incubation was terminated by rapid filtration.
(§1) The filters were punched out into vials, scintillation fluid added and radioactivity determined by liquid scintillation counting. The percentage displacement of specific binding of the tritiated ligand was calculated for the single concentration (10^-6 M) of test compound. Displacement curves were then produced for those compounds which displaced ≥50% of specific binding of the tritiated ligand at 10^-6 M using a range of concentrations of the compound. […] The inhibition coefficient Ki was then calculated using the formula [formula] in which [ligand] is the concentration of the tritiated ligand used and KD is the equilibrium dissociation constant for the ligand.

The target in another assay is T2, α2-adrenoceptors (Rattus norvegicus, UniProt P22909).
T2 sequence (P22909 1-465): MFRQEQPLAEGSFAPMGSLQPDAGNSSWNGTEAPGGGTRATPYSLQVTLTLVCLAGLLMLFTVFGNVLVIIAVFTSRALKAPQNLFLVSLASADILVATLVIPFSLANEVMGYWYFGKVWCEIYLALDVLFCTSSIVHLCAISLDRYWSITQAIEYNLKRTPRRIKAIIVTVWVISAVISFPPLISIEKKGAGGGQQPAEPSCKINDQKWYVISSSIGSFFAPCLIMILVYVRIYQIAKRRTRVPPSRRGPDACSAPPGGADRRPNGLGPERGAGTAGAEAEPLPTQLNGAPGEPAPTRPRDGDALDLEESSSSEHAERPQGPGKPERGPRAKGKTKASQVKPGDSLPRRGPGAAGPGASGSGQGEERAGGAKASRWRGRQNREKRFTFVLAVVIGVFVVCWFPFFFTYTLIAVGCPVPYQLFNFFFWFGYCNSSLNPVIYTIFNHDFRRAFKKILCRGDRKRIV
Put plainly: inhibition of tritiated ligand (tritiated idazoxan) binding to α2-adrenoceptors in vitro (frontal cortical tissue). Further details: species or system rat (male Charles River CD). The settings on record: for Ki: rat frontal cortical tissue, tritiated idazoxan, 0° C., 75 minutes, > from highest concentration which displaced ≤50% of the ligand; for inhibition at 1 µM: read-out: % displacement at 10^-6 M, α2, 10^-6 M, rat frontal cortical tissue, tritiated idazoxan. As for the experimental part:
Frontal cortical tissue from the brains of male Charles River CD rats weighing between 150-250 g were homogenised in ice-cold 0.25M sucrose (1:30 w/v) and centrifuged at 1,000 g at 4° C. for 12 minutes. The supernatant was stored on ice and the pellet was rehomogenised in 0.25M sucrose (1:15 w/v) and centrifuged at 850 g at 4° C. for 12 minutes. Combined supernatants were diluted with 5 mM Tris-HCl (pH 7.5) containing 0.5M ethylenediamine tetraacetic acid (EDTA) readjusted to pH 7.5 (at 25° C.) with 1M sodium hydroxide to 1:80 w/v, and centrifuged at 30,000 g at 4° C. for 10 minutes. The resulting pellet was resuspended in 5 mM Tris-HCl (pH 7.5) containing 5.68 mM L-ascorbic acid and 5 mM EDTA readjusted to pH 7.5 (at 25° C.) with 1M sodium hydroxide, and centrifuged at 30,000 g for 10 minutes. The final pellet was resuspended in 50 mM Tris-HCl (pH 7.5) containing 5.68 mM L-ascorbic acid and 5 mM EDTA (equivalent to 12.5 mg wet weight of tissue/ml) and used immediately in the binding assay. Aliquots (400 μl; equivalent to 5 mg wet weight of tissue/tube) of this suspension were added to tubes containing the ligand (50 μl; 1 nM) and distilled water (50 μl; total binding) or phentolamine (50 μl; 5 μM; non-specificbinding) or test compound (50 μl; at a single concentration of 10^-6 M or at 10 concentrations ranging from 10^-11 -10^-3 M). The ligand was tritiated idazoxan ((1,4-[6,7(n)-^3 H]benzodioxan-2-yl)-2-imidazoline hydrochloride) and the mixture was incubated at 0° C. for 75 minutes before the incubation was terminated by rapid filtration.
as §1, with “The filters were washed with ice-cold Tris-HCl buffer and dried. The filters” for “The filters”

Another assay has as its target D2 dopamine receptors (Rattus norvegicus, UniProt P61169). Put plainly: biochemical. The settings on record: rat striatal tissue, tritiated (S)-sulpiride; for Ki: 4° C., 40 minutes. It counts as binding, rat (male Charles River CD).
The next assay deals with α1-adrenoceptors. Put plainly: inhibition of tritiated ligand ([7-methoxy-^3 H]prazosin) binding to α1-adrenoceptors in vitro (whole cortical tissue). Further details: species or system rat (male Charles River CD). The settings on record: rat whole cortical tissue; for Ki: 30° C., 30 minutes, > from highest concentration which displaced ≤50% of the ligand; for % displacement at 10^-6 M, α1: 30 min, 1 µM. As for the experimental part:
The supernatant was centrifuged at 30,000 g at 4° C. for 10 minutes. […] Aliquots (400 μl; equivalent to 5 mg wet weight of tissue/tube) of this suspension were added to tubes containing the ligand (50 μl; 0.1 nM) and distilled water (50 μl; total binding) or phentolamine (50 μl; 5 μM; non-specific binding) or test compound (50 μl; at a single concentration of 10^-6 M or at 10 concentrations ranging from 10^-11 -10^-3 M). The ligand was [7-methoxy-^3 H]prazosin and the mixture was incubated at 30° C. for 30 minutes before the incubation was terminated by rapid filtration.
as §1

[1] abbreviates: 10^-6 M, rat hippocampal tissue, [^3 H]8-OH-DPAT.
The mark [2] stands for this setting: rat hippocampal tissue, [^3 H]8-OH-DPAT.
[3] abbreviates: 10^-6 M, rat hippocampal tissue, [^3 H]8-OH-DPAT, read-out: % displacement at 10^-6 M, 5-HT1A.

Counter-ions that a name gives are not always drawn. Like-named read-outs stand apart in the source and are kept apart here. Bounds are passed on as bounds.

Sequence of D2 dopamine receptors (P61169 whole entry): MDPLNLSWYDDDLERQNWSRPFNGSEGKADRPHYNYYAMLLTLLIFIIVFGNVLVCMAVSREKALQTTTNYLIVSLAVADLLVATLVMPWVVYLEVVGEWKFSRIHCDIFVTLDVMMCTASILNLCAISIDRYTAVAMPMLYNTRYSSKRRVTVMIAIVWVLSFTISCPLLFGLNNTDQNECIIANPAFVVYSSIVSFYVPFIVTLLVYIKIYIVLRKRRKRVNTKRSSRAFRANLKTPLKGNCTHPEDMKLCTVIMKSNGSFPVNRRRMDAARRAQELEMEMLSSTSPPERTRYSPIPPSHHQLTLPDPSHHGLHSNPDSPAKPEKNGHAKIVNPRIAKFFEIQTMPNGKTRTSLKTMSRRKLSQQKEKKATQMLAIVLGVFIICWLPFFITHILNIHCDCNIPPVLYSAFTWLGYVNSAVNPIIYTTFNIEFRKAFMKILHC

As to “N-(7-chloro-1,4-benzodioxan-2-ylmethyl)-1-[1-(2-methoxyphenyl) piperid-4-yl]methylamine and N-(6-chloro-1,4-benzodioxan-2-ylmethyl)-1-[1-(2-methoxyphenyl) piperid-4-yl]methylamine hydrochloride hydrate [Example 26]”, the “% displacement at 10^-6 M, 5-HT1A” value at 5-HT1A receptors (setting [1]) was 88%. Also, the Ki – broadly, a measure of affinity in units of concentration, obtained from inhibition or displacement – on α2-adrenoceptors was > 500 nM; on D2 dopamine receptors, 82.5 nM; on α1-adrenoceptors it was > 500 nM.

For `Oc1cccc2c1CC(CNCC1CCN(c3ncccn3)CC1)CC2` (stereo not drawn) [Example 10, 7-{N-[1-(pyrimidin-2-yl)piperid-4-ylmethyl}-aminomethyl)-5,6,7,8-tetrahydronaphth-1-ol dihydrobromide], the Ki on 5-HT1A receptors (setting [2]) is 7.7 nM; on α2-adrenoceptors it was > 500 nM; at D2 dopamine receptors, 310 nM; at α1-adrenoceptors it was 339 nM.

For the molecule “N-(7-chloro-1,4-benzodioxan-2-ylmethyl)-1-[1-(2-methoxyphenyl) piperid-4-yl]methylamine and N-(6-chloro-1,4-benzodioxan-2-ylmethyl)-1-[1-(2-methoxy phenyl)-piperid-4-yl]methylamine 1.7 hydrochloride hydrate [Example 27]”, the “% displacement at 10^-6 M, 5-HT1A” value on 5-HT1A receptors (setting [1]) was 94%. The Ki was > 500 nM on α2-adrenoceptors and 61.7 nM on D2 dopamine receptors. Further, the “% displacement at 10^-6 M, α1” value in the assay with α1-adrenoceptors is recorded as 58%.

Take `COc1ccccc1N1CCC(CNCC2COc3ccccc3O2)CC1` (stereo not drawn) [Example 2, N-(1,4-benzodioxan-2-ylmethyl)-1-[1-(2-methoxyphenyl)piperid-4-yl]methylamine dihydrochloride]: the Ki at 5-HT1A receptors (setting [2]) came to 7.7 nM; at α2-adrenoceptors it was 394 nM; at D2 dopamine receptors it was 19 nM; on α1-adrenoceptors it was 78 nM.

As for `COc1cccc2c1CC(CNCC1CCN(c3ncccn3)CC1)CC2` (stereo not drawn) [Example 9, N-(8-methoxy-1,2,3,4-tetrahydronaphth-2-ylmethyl)-1-[1-(pyrimidin-2-yl)piperid-4-yl]methylamine 1.1 hydrochloride], the Ki is 8.2 nM on 5-HT1A receptors (setting [2]), > 500 nM at α2-adrenoceptors, 46.4 nM at D2 dopamine receptors and 34 nM on α1-adrenoceptors.

As to `COc1ccccc1N1CCC(CNCC2COc3ccc4ccccc4c3O2)CC1` (stereo not drawn) [Example 24, 1-[1-(2-methoxyphenyl)piperid-4-yl]-N-(naphtho[1,2-b]dioxan-2-ylmethyl) methylamine hydrochloride 1.3 hydrate], the inhibition at 1 µM on 5-HT1A receptors (setting [3]) stood at 97%. For the same molecule, the Ki on α2-adrenoceptors was > 500 nM; at D2 dopamine receptors, 81.3 nM; at α1-adrenoceptors, > 500 nM.

Regarding `c1ccc2c(c1)OCC(CNCC1CCN(c3cnccn3)CC1)O2` (stereo not drawn) [Example 1, N-(1,4-benzodioxan-2-ylmethyl)-1-[1-(pyrazin-2-yl)piperid-4-yl]methylamine1.4 hydrochloride], the Ki at 5-HT1A receptors (setting [2]) came out at 14 nM; on α2-adrenoceptors, 31 nM; at D2 dopamine receptors, 15.6 nM; on α1-adrenoceptors, 23.9 nM.

For `Cl.Clc1ccccc1N1CCC(CNCC2COc3ccccc3O2)CC1` (stereo not drawn) [Example 22, N-(1,4-benzodioxan-2-ylmethyl)-1-[1-(2-chlorophenyl)piperid-4-yl]methylamine hydrochloride], the inhibition at 1 µM at 5-HT1A receptors (read-out: % displacement at 10^-6 M, 5-HT1A, 10^-6 M, rat hippocampal tissue, [^3 H]8-OH-DPAT) amounted to 95%; on α2-adrenoceptors, 63%. The same molecule gave a Ki on D2 dopamine receptors of 43.5 nM. Also, the “% displacement at 10^-6 M, α1” value with α1-adrenoceptors worked out at 71%.

Consider `COc1ccccc1N1CCC(CNCC2COc3cc(Cl)c(Cl)cc3O2)CC1` (stereo not drawn) [Example 21, N-(6,7-dichloro-1,4-benzodioxan-2-ylmethyl)-1-[1-(2-methoxyphenyl)piperid-4-yl]methylaminehydrochloride], for which the inhibition at 1 µM at 5-HT1A receptors (setting [3]) is 74%; on D2 dopamine receptors (10^-6 M, read-out: % displacement at 10^-6 M, D2) it was 104%. Besides, the Ki on α2-adrenoceptors and at α1-adrenoceptors was > 500 nM in each case.

`COc1ccccc1N1CCC(CNCC2COc3cccc(OC)c3O2)CC1` (stereo not drawn) [Example 6, N-(8-methoxy-1,4-benzodioxan-2-ylmethyl)-1-[1-(2-methoxyphenyl)piperid-4-yl]methylamine dihydrochloride]: the Ki on 5-HT1A receptors (setting [2]) was determined as 252 nM; on D2 dopamine receptors, 8.5 nM; at α1-adrenoceptors, 3.7 nM. Besides, the inhibition at 1 µM at α2-adrenoceptors was 92%.

Consider `FC(F)(F)c1cccnc1NCCNCC1COc2ccccc2O1` (stereo not drawn) [Example 8, N-(1,4-benzodioxan-2-ylmethyl)-N'-[3-(trifluoromethyl)-2-pyridyl)]-ethanediamine dihydrochloride], for which the Ki on 5-HT1A receptors (setting [2]) came to 18.8 nM; at α2-adrenoceptors it was 70 nM; at D2 dopamine receptors, 110 nM; at α1-adrenoceptors, 14 nM.

Regarding `COc1cccc2c1CC(CNCC1CCN(c3ncccn3)CC1)CO2` (stereo not drawn) [Example 11, N-(5-methoxy-3,4-dihydro-2H-1-benzopyran-3-ylmethyl)-1-(1-(pyrimidin-2-yl)piperid-4-yl]methylamine monofumarate], the Ki on 5-HT1A receptors (setting [2]) is 14.7 nM; on α2-adrenoceptors, > 500 nM; at D2 dopamine receptors, 12.9 nM; at α1-adrenoceptors, 31 nM.
